Experimental data from patent US6518270B1, “Heterocyclic compounds for inhibition of gastric acid secretion, processes for their preparation and pharmaceutical compositions thereof” (AstraZeneca AB, priority 1997, dated 2003).

Molecular target: T1, H+,K+-ATPase
T1 construct: from tissue
Assay: Determination of H+,K+-ATPase activity
Type: biochemical
Details: membrane vesicles, 15 min at +37° C., pH 7.4, 10 mM KCl, 2 mM ATP; release of inorganic phosphate
Protocol: Determination of H^+,K^+-ATPase Activity
Membrane vesicles (2.5 to 5 μg) were incubated for 15 min at +37° C. in 18 mM Pipes/Tris buffer pH 7.4 containing 2 mM MgCl2, 10 mM KCl and 2 mM ATP. The ATPase activity was estimated as release of inorganic phosphate from ATP, as described by LeBel et al. (1978) Anal. Biochem. 85, 86-89.

T1 sequence (P20648 whole entry): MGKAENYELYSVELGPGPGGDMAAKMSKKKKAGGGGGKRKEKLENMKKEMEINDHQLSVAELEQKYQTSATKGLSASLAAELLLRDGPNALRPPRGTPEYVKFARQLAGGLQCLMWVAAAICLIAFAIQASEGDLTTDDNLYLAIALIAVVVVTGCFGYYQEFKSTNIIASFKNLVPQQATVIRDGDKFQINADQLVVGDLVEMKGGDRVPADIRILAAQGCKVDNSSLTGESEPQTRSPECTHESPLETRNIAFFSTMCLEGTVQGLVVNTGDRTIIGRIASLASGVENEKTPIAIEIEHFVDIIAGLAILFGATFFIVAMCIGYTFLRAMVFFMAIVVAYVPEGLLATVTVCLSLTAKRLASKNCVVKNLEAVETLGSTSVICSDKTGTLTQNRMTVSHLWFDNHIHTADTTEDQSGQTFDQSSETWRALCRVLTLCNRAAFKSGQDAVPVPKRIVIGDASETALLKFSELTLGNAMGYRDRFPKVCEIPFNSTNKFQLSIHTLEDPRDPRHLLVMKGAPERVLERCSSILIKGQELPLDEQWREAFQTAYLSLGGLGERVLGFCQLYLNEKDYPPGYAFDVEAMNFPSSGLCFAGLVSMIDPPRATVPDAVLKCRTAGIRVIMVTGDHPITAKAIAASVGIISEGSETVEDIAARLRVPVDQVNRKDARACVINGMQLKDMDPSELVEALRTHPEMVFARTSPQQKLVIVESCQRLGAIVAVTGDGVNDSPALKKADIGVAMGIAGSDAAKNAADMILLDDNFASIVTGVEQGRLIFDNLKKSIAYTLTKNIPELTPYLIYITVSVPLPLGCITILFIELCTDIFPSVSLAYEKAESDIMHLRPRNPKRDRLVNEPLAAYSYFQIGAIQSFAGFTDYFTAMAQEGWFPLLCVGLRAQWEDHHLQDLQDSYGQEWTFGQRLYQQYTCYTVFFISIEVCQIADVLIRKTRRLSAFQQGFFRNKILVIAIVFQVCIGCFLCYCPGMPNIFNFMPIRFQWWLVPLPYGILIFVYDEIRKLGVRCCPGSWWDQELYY
T1 sequence (P51164 whole entry partner): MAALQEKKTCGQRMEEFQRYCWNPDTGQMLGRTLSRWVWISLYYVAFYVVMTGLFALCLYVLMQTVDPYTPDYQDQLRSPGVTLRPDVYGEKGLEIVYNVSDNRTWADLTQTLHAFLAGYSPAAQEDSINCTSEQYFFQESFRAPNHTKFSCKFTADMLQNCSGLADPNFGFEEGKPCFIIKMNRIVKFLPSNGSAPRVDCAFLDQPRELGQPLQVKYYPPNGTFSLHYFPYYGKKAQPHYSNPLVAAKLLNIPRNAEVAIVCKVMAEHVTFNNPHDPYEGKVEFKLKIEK

Compound	IC50 [nM]
Cc1cccc(C)c1CNc1nccn2c(C)c(C)nc12 [Example 1, 2,3-dimethyl-8-(2,6-dimethylbenzylamino)imidazo [1,2-a]pyrazine]	160
Cc1cccc(C)c1COc1nccn2c(C)c(C)nc12 [Example 2, 2,3-dimethyl-8-(2,6-dimethylbenzyloxy)imidazo[1,2-a]pyrazine]	2780
